These results are taken from patent US11807650B2, “NMDA receptor modulators and uses thereof” (Novartis AG, priority 2016, dated 2023).

The structures appear in SMILES notation.

T1 sequence (O15399 28-1336, other chains not shown): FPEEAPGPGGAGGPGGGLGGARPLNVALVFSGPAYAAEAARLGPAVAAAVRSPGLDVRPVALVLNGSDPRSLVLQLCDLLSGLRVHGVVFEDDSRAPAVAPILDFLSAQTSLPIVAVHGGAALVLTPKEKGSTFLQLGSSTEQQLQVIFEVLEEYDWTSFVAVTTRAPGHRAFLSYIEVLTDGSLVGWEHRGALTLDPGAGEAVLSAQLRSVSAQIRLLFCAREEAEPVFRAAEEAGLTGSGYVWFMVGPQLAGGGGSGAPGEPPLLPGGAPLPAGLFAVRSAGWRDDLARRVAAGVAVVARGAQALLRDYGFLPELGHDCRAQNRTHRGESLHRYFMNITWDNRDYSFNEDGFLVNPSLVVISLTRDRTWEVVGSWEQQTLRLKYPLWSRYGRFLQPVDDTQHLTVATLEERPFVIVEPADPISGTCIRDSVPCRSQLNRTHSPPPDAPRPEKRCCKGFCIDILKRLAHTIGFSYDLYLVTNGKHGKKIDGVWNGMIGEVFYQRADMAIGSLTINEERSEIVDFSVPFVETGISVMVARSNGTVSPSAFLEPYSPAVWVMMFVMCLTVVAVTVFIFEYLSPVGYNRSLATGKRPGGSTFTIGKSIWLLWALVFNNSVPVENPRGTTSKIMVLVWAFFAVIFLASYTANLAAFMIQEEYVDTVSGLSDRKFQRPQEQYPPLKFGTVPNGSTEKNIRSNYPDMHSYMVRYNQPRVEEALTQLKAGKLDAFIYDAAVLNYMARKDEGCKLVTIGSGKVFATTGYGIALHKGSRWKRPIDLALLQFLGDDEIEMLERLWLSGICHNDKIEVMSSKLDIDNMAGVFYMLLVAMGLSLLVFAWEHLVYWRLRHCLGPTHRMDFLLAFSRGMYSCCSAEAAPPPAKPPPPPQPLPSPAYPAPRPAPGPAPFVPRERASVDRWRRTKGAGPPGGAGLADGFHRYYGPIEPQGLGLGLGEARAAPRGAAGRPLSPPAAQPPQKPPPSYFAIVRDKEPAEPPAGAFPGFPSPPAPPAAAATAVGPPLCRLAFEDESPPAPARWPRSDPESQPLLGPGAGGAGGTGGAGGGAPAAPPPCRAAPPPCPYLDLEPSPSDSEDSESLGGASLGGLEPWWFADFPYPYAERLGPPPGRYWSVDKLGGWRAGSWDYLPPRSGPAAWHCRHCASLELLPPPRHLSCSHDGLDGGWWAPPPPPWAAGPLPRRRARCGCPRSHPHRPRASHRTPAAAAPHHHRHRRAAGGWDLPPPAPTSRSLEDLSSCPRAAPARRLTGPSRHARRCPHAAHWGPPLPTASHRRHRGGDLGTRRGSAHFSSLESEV

This test concerns the target T1, human GRIN1 (transcript variant NR1-3) and GRIN2D expressed in Xenopus oocytes (Homo sapiens, UniProt O15399).
T1 construct: GenScript (GRIN2D synthesis) SC115601; host or cells: Xenopus oocytes injected with cRNA (1 GluN1 : 2 GluN2)
The test can be described thus: NR2D oocyte potentiation assay (two-electrode voltage clamp). The following applies: 10 uM test compound; glutamate and glycine 10 μM each; holding potential −40 mV. It is filed as cell-based. The method, then: NR2D Oocyte Potentiation Assay. Xenopus oocytes (Xenopus 1, Dexter, Mich.) were initially separated from the lobes of an ovary using surgical forceps; they were then defolliculated by constant agitation at room temperature in OR-2 buffer (82.5 mM NaCl; 2.5 mM KCl; 1 mM MgCl2; 5 mM HEPES; pH 7.4) containing 2 mg/ml collagenase Type 1 (Fisher Scientific, USA) for 1.5-2 hours. The cells were then gently aspirated with a Pasteur pipette to remove the follicular tissue; this was followed by washing three times with OR-2 to remove all traces of collagenase. The oocytes were then washed in ND-96 (96 mM NaCl, 2 mM KCl, 1.8 mM CaCl2, 1 mM MgCl2, 5 mM HEPES, 50 ng/L gentamycin, 100 units/ml penicillin and 100 μg/ml streptomycin; pH 7.6) three times and this was followed by incubation in ND-96 at room temperature with mild agitation for 15 minutes; subsequently they were stored for at least 2 hours at 16° C. before sorting and selection for injection. Oocytes selected for injection were incubated overnight in ND-96 at 16° C.
The human GRIN1 (transcript variant NR1-3 (Origene, SKU #: SC115601, Rockville, Md.) and GRIN2D (NCBI locus NM_000836, sequence optimized and synthesized by GenScript) were linearized and transcribed using the mMessage mMachine kit (Life Technologies) and promoters SP6 (for GluN1) and T7 (for GluN2D). cRNAs were mixed together at a ratio of 1 GluN1:2 GluN2. Each oocyte was injected with 50 nL of cRNA and stored in ND96 (96 mM NaCl, 2 mM KCl, 1.8 mM CaCl2, 1 mM MgCl2, 5 mM HEPES, 50 ng/L gentamycin, 100 units/ml penicillin and 100 μg/ml streptomycin; pH 7.6) at 16° C. for 72 h prior to recording.
Currents were recorded using a two-electrode voltage-clamp amplifier (Oocyte Clamp OC-725C; Warner Instrument Corp, Hamden, Conn.), and digitized using Digidata 1550A and pClamp (v. 10) software (Molecular Devices, Sunnyvale, Calif.). Electrodes were filled with 3 M KCl and had resistances that ranged from 0.2-1 MO. All measurements were made at a holding potential of −40 mV. Cells were continuously perfused with oocyte recording solution containing 90 mM NaCl, 1 mM KCl, 0.5 mM BaCl2, and 10 mM HEPES (Ph 7.4). Glutamate and Glycine (co-agonists) were applied at respective concentrations of 10 μM each. Co-agonists were applied until a plateau was reached, and test compounds were then added in the continued presence of co-agonists until a new plateau was reached. After the addition of the last test compound concentration, the oocyte was washed with oocyte recording buffer. Fraction of current remaining was calculated as [(current in presence of test compound−background current)/(co-agonist current−background current)] and IC50 values were computed using Prism 6.0 (Graphpad).
Background: Two-electrode voltage clamp is typically applied to oocytes expressing channels or transporters.
With `C=Cc1c(-c2ccc(C(C)(C)C)cc2)nc2n(c1=O)CCCS2` [Example 32, 8-(4-(tert-butyl)phenyl)-7-vinyl-3,4-dihydro-2H,6H-pyrimido[2,1-b][1,3]thiazin-6-one], the activation at 10 µM is 10 to 100%. On the same count and under the same terms, then `C=Cc1c(-c2ccc(C(C)(C)C)nc2)nc2n(c1=O)CCCS2` [Example 33, 8-(6-tert-butylpyridin-3-yl)-7-ethenyl-2H, 3H,4H,6H-pyrimido [2,1-b][1,3] thiazin-6-one], with 10 to 100%; and `CC1CCc2nc(-c3ccc(C(C)(C)C)nc3)c(C#N)c(=O)n2C1` (stereo not drawn) [Example 34, 2-(6-(tert-butyl)pyridin-3-yl)-7-methyl-4-oxo-6,7,8,9-tetrahydro-4H-pyrido[1,2-a]pyrimidine-3-carbonitrile], with 10 to 100%; and `Cc1csc2nc(-c3ccc(C(C)(C)C)nc3)c(C#N)c(=O)n12` [Example 35, 7-(6-(tert-butyl)pyridin-3-yl)-3-methyl-5-oxo-5H-thiazolo[3,2-a]pyrimidine-6-carbonitrile], with 100 to 500%. As for `CC(C)(C)c1ncc(-c2nc3n(c(=N)c2C#N)CCCS3)cc1F` [Example 40, 8-(6-(tert-butyl)-5-fluoropyridin-3-yl)-6-imino-3,4-dihydro-2H,6H-pyrimido[2,1-b][1,3]thiazine-7-carbonitrile], the activation at 10 µM was above 1000%.

For the compound `CC1CSc2nc(-c3cnc(C(C)(C)C)c(F)c3)c(C#N)c(=N)n2C1` (stereo not drawn) [Example 41, 8-(6-(tert-butyl)-5-fluoropyridin-3-yl)-6-imino-3-methyl-3,4-dihydro-2H,6H-pyrimido[2,1-b][1,3]thiazine-7-carbonitrile], the activation at 10 µM is above 1000%. Consider `CC1CSc2nc(-c3ccc(C4(C(F)(F)F)CC4)cc3)c(C#N)c(=O)n2C1` (stereo not drawn) [Example 46, 3-methyl-6-oxo-8-(4-(1-(trifluoromethyl)cyclopropyl)phenyl)-3,4-dihydro-2H,6H-pyrimido[2,1-b][1,3]thiazine-7-carbonitrile], for which the activation at 10 µM lay in the range of 100 to 500%.

Turning to `N#Cc1c(-c2ccc(C3(C(F)(F)F)CC3)cc2)nc2n(c1=O)CCCS2` [Example 47, 6-oxo-8-(4-(1-(trifluoromethyl)cyclopropyl)phenyl)-3,4-dihydro-2H,6H-pyrimido[2,1-b][1,3]thiazine-7-carbonitrile], the activation at 10 µM is 500 to 1000%.

`CC1CSc2nc(-c3ccc(N4CC(C)(F)C4)nc3)c(C#N)c(=O)n2C1` (stereo not drawn) [Example 51, 8-(6-(3-fluoro-3-methylazetidin-1-yl)pyridin-3-yl)-3-methyl-6-oxo-3,4-dihydro-2H,6H-pyrimido[2,1-b][1,3]thiazine-7-carbonitrile]: the “NR2D Oocyte % Potentiation @ 10 uM” value was “Inhibitor”. `CC1CSc2nc(-c3ccc(N4CC(C)(C)C4)nc3)c(C#N)c(=O)n2C1` (stereo not drawn) [Example 52, 8-(6-(3,3-dimethylazetidin-1-yl)pyridin-3-yl)-3-methyl-6-oxo-3,4-dihydro-2H,6H-pyrimido[2,1-b][1,3]thiazine-7-carbonitrile]: the “NR2D Oocyte % Potentiation @ 10 uM” value was “Inhibitor”. `CC1(F)CN(c2ccc(-c3nc4n(c(=O)c3C#N)CCCS4)cn2)C1` [Example 53, 8-(6-(3-fluoro-3-methylazetidin-1-yl)pyridin-3-yl)-6-oxo-3,4-dihydro-2H,6H-pyrimido[2,1-b][1,3]thiazine-7-carbonitrile]: the “NR2D Oocyte % Potentiation @ 10 uM” value was “Inhibitor”. Take `CC1(C)CN(c2ccc(-c3nc4n(c(=O)c3C#N)CCCS4)cn2)C1` [Example 54, 8-(6-(3,3-dimethylazetidin-1-yl)pyridin-3-yl)-6-oxo-3,4-dihydro-2H,6H-pyrimido[2,1-b][1,3]thiazine-7-carbonitrile]: the “NR2D Oocyte % Potentiation @ 10 uM” value was “Inhibitor”. The same measure, in the same setting: then `N#Cc1c(-c2ccc(N3CC(F)(F)C3)nc2)nc2n(c1=O)CCCS2` [Example 55, 8-(6-(3,3-difluoroazetidin-1-yl)pyridin-3-yl)-6-oxo-3,4-dihydro-2H,6H-pyrimido[2,1-b][1,3]thiazine-7-carbonitrile], with “Inhibitor”; and `CC1CSc2nc(-c3ccc(N4CC(F)(F)C4)nc3)c(C#N)c(=O)n2C1` (stereo not drawn) [Example 56, 8-(6-(3,3-difluoroazetidin-1-yl)pyridin-3-yl)-3-methyl-6-oxo-3,4-dihydro-2H,6H-pyrimido[2,1-b][1,3]thiazine-7-carbonitrile], with “Inhibitor”. For `N#Cc1c(-c2ccc(Br)nc2)nc2n(c1=O)CCCS2` [Example 57, 8-(6-bromopyridin-3-yl)-6-oxo-3,4-dihydro-2H,6H-pyrimido[2,1-b][1,3]thiazine-7-carbonitrile], the activation at 10 µM lay within 10 to 100%.

Turning to `CC1CSc2nc(-c3cnc(C(C)(C)C)c(Br)c3)c(C#N)c(=O)n2C1` (stereo not drawn) [Example 58, 8-(5-bromo-6-(tert-butyl)pyridin-3-yl)-3-methyl-6-oxo-3,4-dihydro-2H,6H-pyrimido[2,1-b][1,3]thiazine-7-carbonitrile], the activation at 10 µM is above 1000%.

`COc1cc(-c2nc3n(c(=O)c2C#N)CC(C)CS3)cnc1C(C)(C)C` (stereo not drawn) [Example 59, 8-(6-(tert-butyl)-5-methoxypyridin-3-yl)-3-methyl-6-oxo-3,4-dihydro-2H,6H-pyrimido[2,1-b][1,3]thiazine-7-carbonitrile]: the activation at 10 µM is above 1000%.

Regarding `COc1cc(-c2nc3n(c(=O)c2C#N)CCCS3)cnc1C(C)(C)C` [Example 60, 8-(6-(tert-butyl)-5-methoxypyridin-3-yl)-6-oxo-3,4-dihydro-2H,6H-pyrimido[2,1-b][1,3]thiazine-7-carbonitrile], the activation at 10 µM was 500 to 1000%. The same measure, in the same setting: then `CSc1cc(-c2nc3n(c(=O)c2C#N)CC(C)CS3)cnc1C(C)(C)C` (stereo not drawn) [Example 61, 8-(6-(tert-butyl)-5-(methylthio)pyridin-3-yl)-3-methyl-6-oxo-3,4-dihydro-2H,6H-pyrimido[2,1-b][1,3]thiazine-7-carbonitrile], with above 1000%; and `CSc1cc(-c2nc3n(c(=O)c2C#N)CCCS3)cnc1C(C)(C)C` [Example 62, 8-(6-(tert-butyl)-5-(methylthio)pyridin-3-yl)-6-oxo-3,4-dihydro-2H,6H-pyrimido[2,1-b][1,3]thiazine-7-carbonitrile], with above 1000%; and `CN(C)c1ccc(-c2nc3n(c(=O)c2C#N)CCCS3)cn1` [Example 66, 8-(6-(dimethylamino)pyridin-3-yl)-6-oxo-3,4-dihydro-2H,6H-pyrimido[2,1-b][1,3]thiazine-7-carbonitrile], with 10 to 100%. `CC(C)(C)c1ccc(-c2cc3n(c(=O)c2C#N)CCCS3)cc1` [Example 68, 8-(4-(tert-butyl)phenyl)-6-oxo-3,4-dihydro-2H,6H-pyrido[2,1-b][1,3]thiazine-7-carbonitrile]: the activation at 10 µM was above 1000%. Turning to `CC1CSc2cc(-c3ccc(C(C)(C)C)nc3)c(C#N)c(=O)n2C1` (stereo not drawn) [Example 69, 8-(6-(tert-butyl)pyridin-3-yl)-3-methyl-6-oxo-3,4-dihydro-2H,6H-pyrido[2,1-b][1,3]thiazine-7-carbonitrile], the activation at 10 µM is above 1000%. On to `CC(C)(C)c1ccc(-c2cc3n(c(=O)c2C#N)CCCS3)cn1` [Example 70, 8-(6-(tert-butyl)pyridin-3-yl)-6-oxo-3,4-dihydro-2H,6H-pyrido[2,1-b][1,3]thiazine-7-carbonitrile], for which the activation at 10 µM was above 1000%. For `CC1CSc2cc(-c3cnc(C(C)(C)C)nc3)c(C#N)c(=O)n2C1` (stereo not drawn) [Example 71, 8-(2-(tert-butyl)pyrimidin-5-yl)-3-methyl-6-oxo-3,4-dihydro-2H,6H-pyrido[2,1-b][1,3]thiazine-7-carbonitrile], the activation at 10 µM is above 1000%. As for `CC1CSc2cc(-c3ccc(C4(C)CC4)nc3)c(C#N)c(=O)n2C1` (stereo not drawn) [Example 72, 3-methyl-8-(6-(1-methylcyclopropyl)pyridin-3-yl)-6-oxo-3,4-dihydro-2H,6H-pyrido[2,1-b][1,3]thiazine-7-carbonitrile], the activation at 10 µM was above 1000%. The same measure, in the same setting: then `C[C@H]1CSc2nc(-c3cnc(C(C)(C)C)nc3)c(C#N)c(=O)n2C1` [Example 73, (R)-8-(2-(tert-butyl)pyrimidin-5-yl)-3-methyl-6-oxo-3,4-dihydro-2H,6H-pyrimido[2,1-b][1,3]thiazine-7-carbonitrile], with above 1000%.
